Patent publication EP1345943B1, “INHIBITORS OF PAPILLOMA VIRUS” (BOEHRINGER INGELHEIM (CANADA) LTD., priority 2000, dated 2002)

These molecules were tested against E1-E2-DNA complex (Human papillomavirus 11, UniProt P04015) (assay: E2-dependent E1 DNA binding assay (E1-E2 DNA assay)). Settings: E1-E2 DNA assay of Example 11, HPV-11.
Chain of E1-E2-DNA complex (P04015 whole entry, one chain of several): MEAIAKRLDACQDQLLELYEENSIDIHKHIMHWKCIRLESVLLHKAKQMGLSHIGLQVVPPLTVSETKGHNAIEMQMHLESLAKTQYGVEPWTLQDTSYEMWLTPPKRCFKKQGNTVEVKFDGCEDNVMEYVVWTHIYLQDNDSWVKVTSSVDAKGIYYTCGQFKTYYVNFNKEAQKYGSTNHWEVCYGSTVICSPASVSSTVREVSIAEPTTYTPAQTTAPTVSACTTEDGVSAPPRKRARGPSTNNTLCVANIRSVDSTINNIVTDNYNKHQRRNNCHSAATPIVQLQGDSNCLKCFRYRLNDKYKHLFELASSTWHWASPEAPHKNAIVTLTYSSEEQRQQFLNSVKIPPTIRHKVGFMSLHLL
Protocol: This particular assay determines the ability of a test compound to inhibit the activity (IC50) of HPV-11 DNA replication. More specifically, in the assay described herein, the inhibitory activity of the test compound is evaluated based on its ability to interfere with the E1-E2-DNA origin of replication interaction, thereby inhibiting initiation of viral DNA replication.
This assay was modeled on a similar assay for SV40 T Antigen described by McKay (J. Mol. Biol., 1981,145:471). A 400bp radiolabeled DNA probe, containing the -HPV-11 origin of replication (Chiang et al.., 1992, Proc. Natl.-Acad. Sci. USA 89:5799) was produced by pcr, using plasmid pBluescript™ SK encoding the origin (nucleotides 7886-61 of the HPV-11 genome in unique BAMH1 site) as template and primers flanking the origin. Radiolabel was incorporated as [33p]dCTP. Binding assay buffer consisted of: 20 mM Tris pH 7.6, 100 mM NaCI, 1 mM DTT, 1 mM EDTA.
Other reagents used were protein A-SPA beads (type II, Amersham) and K72 rabbit polyclonal antiserum, raised against a peptide corresponding to the C-terminal 14 amino acids of HPV-11 E1. Following the protocol from Amersham, one bottle of beads was mixed with 25 mL of binding assay buffer. For the assay, a saturating amount of K72 antiserum was added to the beads and the mixture was incubated for 1 h, washed with one volume of binding assay buffer, and then resuspended in the same volume of fresh binding assay buffer. Binding reactions contained 8 ng of E2, approximately 100-200 ng of purified E1, and 0.4 ng of radiolabeled probe in a total of 80 µL of binding assay buffer. After 1 h at room temperature, 25 µL of K72 antibody-SPA bead suspension was added to with the binding reaction and mixed. After an additional hour of incubation at room temperature, the reactions were centrifuged briefly to pellet the beads and the extent of complex formation was determined by scintillation counting on a Packard TopCount™. Typically, the signal for reactions containing E1 and E2 was 20-30 fold higher than the background observed when either E1, E2, or both was omitted.
Molecule `CC(=O)c1ccc(NC(=O)C2C(c3ccc(C)c(C)c3)OC3(C(=O)c4ccccc4C3=O)C2C(=O)O)cc1` (centres unmarked) [Compound 1056] has an IC50 of 0.5 to 5 µM. Work on `O=C(Nc1ccc(NC(=O)C2C(c3ccc(Cl)c(Cl)c3)OC3(C(=O)c4ccccc4C3=O)C2C(=O)O)cc1)c1ccccc1` (centres unmarked) [Compound 1057] yielded an IC50 of 0.5 to 5 µM. Work on `O=C(NC1CC1c1ccccc1)C1C(c2ccc(Cl)c(Cl)c2)OC2(C(=O)c3ccccc3C2=O)C1C(=O)O` (centres unmarked) [Compound 1058] yielded an IC50 of 0.5 to 5 µM. `O=C(Nc1ccc(N2CCOCC2)cc1)C1C(c2ccc(F)c(F)c2)OC2(C(=O)c3ccccc3C2=O)C1C(=O)O` (centres unmarked) [Compound 1059] gave an IC50 of 0.5 to 5 µM. `CC(C)(C)c1ccc(NC(=O)C2C(c3ccc(Cl)c(Cl)c3)OC3(C(=O)c4ccccc4C3=O)C2C(=O)O)cc1` (centres unmarked) [Compound 1060] gave an IC50 of 0.5 to 5 µM. Molecule `O=C(Nc1cnc2ccccc2c1)C1C(c2ccc(F)c(F)c2)OC2(C(=O)c3ccccc3C2=O)C1C(=O)O` (centres unmarked) [Compound 1061] has an IC50 of 5 to 50 µM. Work on `O=C(Nc1ccc(Cl)cc1)C1C(c2ccc(F)c(F)c2)OC2(C(=O)c3ccccc3C2=O)C1C(=O)O` (centres unmarked) [Compound 1062] yielded an IC50 of 5 to 50 µM. `O=C(Nc1ccc(Cl)cc1)C1C(c2ccc(Cl)c(Cl)c2)OC2(C(=O)c3ccccc3C2=O)C1C(=O)O` (centres unmarked) [Compound 1063] was tested, and the IC50 was 0.5 to 5 µM. Molecule `CC(=O)c1ccc(NC(=O)C2C(c3ccc(F)c(F)c3)OC3(C(=O)c4ccccc4C3=O)C2C(=O)O)cc1` (centres unmarked) [Compound 1064] has an IC50 of 5 to 50 µM. Molecule `Cc1ccc(NC(=O)C2C(c3ccc(Cl)c(Cl)c3)OC3(C(=O)c4ccccc4C3=O)C2C(=O)O)cc1` (centres unmarked) [Compound 1065] has an IC50 of 0.5 to 5 µM. Molecule `O=C(NC1CC1c1ccccc1)C1C(c2ccc(Cl)c(Cl)c2)OC2(C(=O)c3ccccc3C2=O)C1C(=O)O` (centres unmarked) [Compound 1066] has an IC50 of under 0.5 µM. With `CC(=O)c1ccc(NC(=O)C2C(c3ccc(C(F)(F)F)c(F)c3)OC3(C(=O)c4ccccc4C3=O)C2C(=O)O)cc1` (centres unmarked) [Compound 1067] the IC50 was 5 to 50 µM. `O=C(Nc1ccccc1)C1C(c2ccc(F)c(F)c2)OC2(C(=O)c3ccccc3C2=O)C1C(=O)O` (centres unmarked) [Compound 1068] showed an IC50 of 5 to 50 µM. In the case of `N#Cc1ccc(NC(=O)C2C(c3ccc(Cl)c(Cl)c3)OC3(C(=O)c4ccccc4C3=O)C2C(=O)O)cc1` (centres unmarked) [Compound 1070], the IC50 is reported as 0.5 to 5 µM. `Cc1ccc(C2OC3(C(=O)c4ccccc4C3=O)C(C(=O)O)C2C(=O)Nc2cnc3ccccc3c2)cc1C` (centres unmarked) [Compound 1071] was tested, and the IC50 was 5 to 50 µM. With `CSc1ccc(NC(=O)C2C(c3ccc(F)c(F)c3)OC3(C(=O)c4ccccc4C3=O)C2C(=O)O)cc1` (centres unmarked) [Compound 1073] the IC50 was 5 to 50 µM. With `CC(C)(C)c1ccc(NC(=O)C2C(c3ccc(Br)c(Br)c3)OC3(C(=O)c4ccccc4C3=O)C2C(=O)O)cc1` (centres unmarked) [Compound 1079] the IC50 was 5 to 50 µM. Work on `N#Cc1cccc(C2OC3(C(=O)c4ccccc4C3=O)C(C(=O)O)C2C(=O)Nc2ccc3c(c2)OCO3)c1` (centres unmarked) [Compound 1080] yielded an IC50 of 5 to 50 µM. With `CSc1ccc(NC(=O)C2C(c3ccc(Br)c(Br)c3)OC3(C(=O)c4ccccc4C3=O)C2C(=O)O)cc1` (centres unmarked) [Compound 1081] the IC50 was under 0.5 µM. For `O=C(NC1CCCCC1)C1C(c2ccc(Cl)c(Cl)c2)OC2(C(=O)c3ccccc3C2=O)C1C(=O)O` (centres unmarked) [Compound 1082], the IC50 was 0.5 to 5 µM. In the case of `O=C(Nc1ccc(-c2csnn2)cc1)C1C(c2ccc(F)c(F)c2)OC2(C(=O)c3ccccc3C2=O)C1C(=O)O` (centres unmarked) [Compound 1083], the IC50 is reported as 0.5 to 5 µM. Work on `O=C(Nc1ccc2c(c1)OCO2)C1C(c2ccc(Br)c(Br)c2)OC2(C(=O)c3ccccc3C2=O)C1C(=O)O` (centres unmarked) [Compound 1084] yielded an IC50 of under 0.5 µM. `N#Cc1cccc(C2OC3(C(=O)c4ccccc4C3=O)C(C(=O)O)C2C(=O)Nc2ccc(N3CCOCC3)cc2)c1` (centres unmarked) [Compound 1085] showed an IC50 of 5 to 50 µM. `CS(=O)(=O)c1ccc(NC(=O)C2C(c3ccc(Br)c(Br)c3)OC3(C(=O)c4ccccc4C3=O)C2C(=O)O)cc1` (centres unmarked) [Compound 1086] gave an IC50 of under 0.5 µM. In the case of `CC(=O)Nc1ccc(NC(=O)C2C(c3ccc(Br)c(Br)c3)OC3(C(=O)c4ccccc4C3=O)C2C(=O)O)cc1` (centres unmarked) [Compound 1092], the IC50 is reported as under 0.5 µM. `O=C(NN1CCOCC1)C1C(c2ccc(F)c(Cl)c2)OC2(C(=O)c3ccccc3C2=O)C1C(=O)O` (centres unmarked) [Compound 1093] gave an IC50 of 5 to 50 µM. Molecule `CC(=O)c1ccc(NC(=O)C2C(c3ccc(F)c(Cl)c3)OC3(C(=O)c4ccccc4C3=O)C2C(=O)O)cc1` (centres unmarked) [Compound 1094] has an IC50 of 0.5 to 5 µM. Work on `O=C(Nc1cc(F)cc(F)c1)C1C(c2ccc(Cl)c(Cl)c2)OC2(C(=O)c3ccccc3C2=O)C1C(=O)O` (centres unmarked) [Compound 1096] yielded an IC50 of 0.5 to 5 µM. `O=C(NCCc1ccccc1)C1C(c2ccc(Br)c(Br)c2)OC2(C(=O)c3ccccc3C2=O)C1C(=O)O` (centres unmarked) [Compound 1097] showed an IC50 of under 0.5 µM. `O=C(NC1Cc2ccccc2C1)C1C(c2ccc(Cl)c(Cl)c2)OC2(C(=O)c3ccccc3C2=O)C1C(=O)O` (centres unmarked) [Compound 1098] gave an IC50 of 0.5 to 5 µM. `O=C(NC1CCCCC1)C1C(c2ccc(Br)c(Br)c2)OC2(C(=O)c3ccccc3C2=O)C1C(=O)O` (centres unmarked) [Compound 1099] was tested, and the IC50 was under 0.5 µM. In the case of `O=C(c1ccccc1)c1cccc(NC(=O)C2C(c3ccc(Cl)c(Cl)c3)OC3(C(=O)c4ccccc4C3=O)C2C(=O)O)c1` (centres unmarked) [Compound 1100], the IC50 is reported as 0.5 to 5 µM. `O=C(Nc1ccc(Cl)cc1)C1C(c2ccc(Cl)c(Cl)c2)OC2(C(=O)c3ccccc3C2=O)C1C(=O)O` (centres unmarked) [Compound 1101] was tested, and the IC50 was 0.5 to 5 µM. With `O=C(c1ccccc1)c1cccc(NC(=O)C2C(c3ccc(Br)c(Br)c3)OC3(C(=O)c4ccccc4C3=O)C2C(=O)O)c1` (centres unmarked) [Compound 1103] the IC50 was 0.5 to 5 µM. `O=C(Nc1ccc(Br)c(Cl)c1)C1C(c2ccc(Cl)c(Cl)c2)OC2(C(=O)c3ccccc3C2=O)C1C(=O)O` (centres unmarked) [Compound 1104] gave an IC50 of 0.5 to 5 µM. `O=C(Nc1ccc(F)c(F)c1)C1C(c2ccc(Br)c(Br)c2)OC2(C(=O)c3ccccc3C2=O)C1C(=O)O` (centres unmarked) [Compound 1105] gave an IC50 of 0.5 to 5 µM. In the case of `CC(=O)c1ccc(NC(=O)C2C(c3ccc(Cl)c(Cl)c3)OC3(C(=O)c4ccc(F)cc4C3=O)C2C(=O)O)cc1` (centres unmarked) [Compound 1106], the IC50 is reported as 0.5 to 5 µM. For `CC(=O)c1ccc(NC(=O)C2C(c3ccc(Cl)c(Cl)c3)OC3(C(=O)c4ccc(F)cc4C3=O)C2C(=O)O)cc1` (centres unmarked) [Compound 1107], the IC50 was 0.5 to 5 µM. Molecule `CC(=O)Nc1ccc(NC(=O)C2C(c3ccc(Cl)c(Cl)c3)OC3(C(=O)c4ccccc4C3=O)C2C(=O)O)cc1` (centres unmarked) [Compound 1108] has an IC50 of 0.5 to 5 µM. `O=C(Nc1ccc(Cl)cc1)C1C(c2ccc(Br)c(Br)c2)OC2(C(=O)c3ccccc3C2=O)C1C(=O)O` (centres unmarked) [Compound 1110] gave an IC50 of under 0.5 µM. `O=C(Nc1ccc(F)c(F)c1)C1C(c2ccc(Cl)c(Cl)c2)OC2(C(=O)c3ccccc3C2=O)C1C(=O)O` (centres unmarked) [Compound 1111] was tested, and the IC50 was 0.5 to 5 µM. In the case of `O=C(Nc1ccc(OC(F)(F)F)cc1)C1C(c2ccc(Cl)c(Cl)c2)OC2(C(=O)c3ccccc3C2=O)C1C(=O)O` (centres unmarked) [Compound 1112], the IC50 is reported as 0.5 to 5 µM. Work on `O=C(NC1Cc2ccccc2C1)C1C(c2ccc(Br)c(Br)c2)OC2(C(=O)c3ccccc3C2=O)C1C(=O)O` (centres unmarked) [Compound 1113] yielded an IC50 of under 0.5 µM. `CC(=O)c1ccc(NC(=O)C2C(c3ccc(Cl)c(Cl)c3)OC3(C(=O)c4ccc(Cl)cc4C3=O)C2C(=O)O)cc1` (centres unmarked) [Compound 1114] showed an IC50 of 0.5 to 5 µM. With `O=C(NCCc1ccccc1)C1C(c2ccc(F)c(Cl)c2)OC2(C(=O)c3ccccc3C2=O)C1C(=O)O` (centres unmarked) [Compound 1115] the IC50 was 0.5 to 5 µM. In the case of `CC(=O)c1ccc(NC(=O)C2C(c3ccc(Cl)c(Cl)c3)OC3(C(=O)c4ccc(Cl)cc4C3=O)C2C(=O)O)cc1` (centres unmarked) [Compound 1116], the IC50 is reported as 5 to 50 µM. `O=C(Nc1cc2c(cc1[N+](=O)[O-])OCO2)C1C(c2ccc(Cl)c(Cl)c2)OC2(C(=O)c3ccccc3C2=O)C1C(=O)O` (centres unmarked) [Compound 1117] gave an IC50 of 0.5 to 5 µM. With `O=C(Nc1ccc(OC(F)(F)F)cc1)C1C(c2ccc(Br)c(Br)c2)OC2(C(=O)c3ccccc3C2=O)C1C(=O)O` (centres unmarked) [Compound 1118] the IC50 was 0.5 to 5 µM. For `O=C(Nc1cccc(Cl)c1)C1C(c2ccc(Br)c(Br)c2)OC2(C(=O)c3ccccc3C2=O)C1C(=O)O` (centres unmarked) [Compound 1119], the IC50 was under 0.5 µM. With `O=C(Nc1cc(F)cc(F)c1)C1C(c2ccc(F)c(Cl)c2)OC2(C(=O)c3ccccc3C2=O)C1C(=O)O` (centres unmarked) [Compound 1120] the IC50 was 0.5 to 5 µM. For `O=C(Nc1ccc(Br)c(Cl)c1)C1C(c2ccc(F)c(Cl)c2)OC2(C(=O)c3ccccc3C2=O)C1C(=O)O` (centres unmarked) [Compound 1121], the IC50 was 0.5 to 5 µM. `O=C(Nc1ccc(F)c(F)c1)C1C(c2ccc(F)c(Cl)c2)OC2(C(=O)c3ccccc3C2=O)C1C(=O)O` (centres unmarked) [Compound 1122] gave an IC50 of 5 to 50 µM. `O=C(Nc1ccccc1Cl)C1C(c2ccc(Cl)c(Cl)c2)OC2(C(=O)c3ccccc3C2=O)C1C(=O)O` (centres unmarked) [Compound 1123] gave an IC50 of under 0.5 µM. `COc1ccccc1NC(=O)C1C(c2ccc(Cl)c(Cl)c2)OC2(C(=O)c3ccccc3C2=O)C1C(=O)O` (centres unmarked) [Compound 1124] showed an IC50 of 0.5 to 5 µM. `O=C(Nc1ccccc1F)C1C(c2ccc(Cl)c(Cl)c2)OC2(C(=O)c3ccccc3C2=O)C1C(=O)O` (centres unmarked) [Compound 1125] gave an IC50 of under 0.5 µM. Molecule `Cc1cc(C)cc(NC(=O)C2C(c3ccc(Cl)c(Cl)c3)OC3(C(=O)c4ccccc4C3=O)C2C(=O)O)c1` (centres unmarked) [Compound 1126] has an IC50 of 0.5 to 5 µM.
